Data as given in US20240226117A1, “TREATMENT OF CONGENITAL ADRENAL HYPOPLASIA” (ReveraGen BioPharma, Inc., priority 2021, published 2024).

Key:
Format in all cases: in vivo, human
DMD participants [1] = test: Physician-reported adverse events in vamorolone trials and published corticosteroid studies
Procedure: Study visits took place quarterly, including assessment of clinical laboratory results, vital signs, and AEs. All AEs were coded using the Medical Dictionary for Regulatory Activities (MedDRA version 19.0) system for reporting (preferred term and system organ class). Clinical efficacy assessments were performed at baseline of the VBP15-002 study, at six months (end of VBP15-003 study), and the 12-month midpoint visit of the VBP15-LTE study.
Treatment-emergent AEs (TEAEs) have been published for the 2-week treatment MAD study (VBP15-002) and the 24-week dose-finding extension study (VBP15-003). TEAEs were reported with similar incidence by participants in all four vamorolone groups.
A Data and Safety Monitoring Board report on the VBP15-LTE study covering all participants enrolled in the VBP15-LTE study (inclusive beyond the 12-month midpoint assessment) included three serious AEs (2 myoglobinuria events [in the same participant] and one pneumonia), all deemed unrelated to study drug. For all reported TEAEs, 402 were deemed unrelated to vamorolone, 37 were deemed remotely related, 29 were deemed possibly related, 11 were deemed probably related, and three were deemed definitely related. Of the 14 AEs probably and definitely related to vamorolone, 10 were weight gain, 2 were increased appetite, 1 was Cushingoid features, and 1 was irritability.
The incidences of physician-reported AEs typically for corticosteroid treatment were determined for participants that had been treated with vamorolone 6.0 mg/kg/day (for any duration), taken from the March 2019 Data Safety Update Report (DSUR) (pharmacovigilance report). Incidence rates of Cushingoid features, weight gain, hirsutism, and behavior change were studied (Table 8).

DMD participants [2] = test: Morning serum cortisol (adrenal suppression); conditions: 24-week trial
Procedure: Two tests for adrenal insufficiency were used: morning cortisol (before drug) and ACTH stimulation tests. Adrenal suppression was measured via morning serum cortisol levels at Baseline, 12-weeks, and 24-weeks. The ACTH stimulation test was measured at Baseline and 24-weeks. Morning cortisol was measured in the clinic before daily drug administration. Morning cortisol levels were similar at Baseline (˜200 nmol/L) in all groups and remained stable over the 24-week trial in the Placebo Group.

ambulant boys with DMD = test: VISION-DMD Phase 2b (VBP15-004) motor efficacy, 24-week double-blind period
[3] = 6.0 mg/kg/day vamorolone (any duration), n = 38, DSUR 13 Mar. 2019

Compound: C[C@@H]1C[C@H]2[C@@H]3CCC4=CC(=O)C=C[C@]4(C)C3=CC[C@]2(C)[C@@]1(O)C(=O)CO [Vamorolone, 17α,21-dihydroxy-16α-methylpregna-1,4,9(11)-triene-3,20-dione]
- Incidence of physician-reported Cushingoid (DMD participants [1]; [3]): 2.6%
- Incidence of physician-reported behavior change (DMD participants [1]; [3]): 0%^2
- Incidence of physician-reported hypertrichosis/hirsutism (DMD participants [1]; [3]): 0%
- Incidence of physician-reported weight gain (DMD participants [1]; [3]): 13.2%
- Cushingoid features among the 14 AEs probably and definitely related (DMD participants [1]; VBP15-LTE): 1
- increased appetite among the 14 AEs probably and definitely related (DMD participants [1]; VBP15-LTE): 2
- irritability among the 14 AEs probably and definitely related (DMD participants [1]; VBP15-LTE): 1
- weight gain among the 14 AEs probably and definitely related (DMD participants [1]; VBP15-LTE): 10
- TEAEs deemed definitely related (DMD participants [1]; VBP15-LTE, all reported TEAEs): three
- TEAEs deemed possibly related (DMD participants [1]; VBP15-LTE, all reported TEAEs): 29
- TEAEs deemed probably related (DMD participants [1]; VBP15-LTE, all reported TEAEs): 11
- TEAEs deemed remotely related (DMD participants [1]; VBP15-LTE, all reported TEAEs): 37
- TEAEs deemed unrelated to vamorolone (DMD participants [1]; VBP15-LTE, all reported TEAEs): 402
- serious AEs in VBP15-LTE (Data and Safety Monitoring Board report) (DMD participants [1]; all LTE participants, all deemed unrelated to study drug): three
- safety and tolerability over the 24-week treatment period (VBP15-003) (DMD participants [1]; oral, all doses tested (0.25, 0.75, 2.0, 6.0 mg/kg/day)): safe and well-tolerated
- adrenal suppression by morning cortisol, compared with prednisone (DMD participants [2]; vamorolone 2.0 mg/kg/day, p=0.002): less adrenal suppression than prednisone
- adrenal suppression by morning cortisol, compared with prednisone (DMD participants [2]; vamorolone 6.0 mg/kg/day): not significantly different from prednisone
- TTSTAND after 24 weeks (ambulant boys with DMD; vamorolone 6 mg/kg/day group, from 6.0 seconds at baseline): 4.6 s
- TTSTAND velocity, 6MWT, TTRW endpoints compared with prednisone (ambulant boys with DMD; vamorolone 6 mg/kg/day versus prednisone 0.75 mg/kg/day, 24 weeks): no statistically significant differences
- TTSTAND velocity, treatment difference versus placebo in change from baseline (ambulant boys with DMD; vamorolone 6 mg/kg/day, 24 weeks, p=0.002): 0.06 rises/second
